Calls of active or inactive are those of the source. The calls are words filed in the database; no cut-off is given here.
Assays:
[1] = target: Dual specificity mitogen-activated protein kinase kinase 2 (Homo sapiens) (UniProt P36507); test: Binding affinity to MEK2 at 1 uM by high throughput binding assay relative to control
[2] = target: Tyrosine-protein kinase JAK2 (Homo sapiens) (UniProt O60674); test: Binding affinity to JAK2 at 1 uM by high throughput binding assay relative to control
[3] = target: Dual specificity mitogen-activated protein kinase kinase 1 (Homo sapiens) (UniProt Q02750); test: Binding affinity to MEK1 at 1 uM by high throughput binding assay relative to control
[4] = target: T1, Mast/stem cell growth factor receptor Kit (Homo sapiens, UniProt P10721); test: Inhibition of KIT by radiometric kinase assay
[5] = target: Aurora kinase A (Homo sapiens) (UniProt O14965); test: Binding affinity to AURKA at 1 uM by high throughput binding assay relative to control
[6] = target: Serine/threonine-protein kinase PLK1 (Homo sapiens) (UniProt P53350); test: Binding affinity to PLK1 at 1 uM by high throughput binding assay relative to control
[7] = target: Serine/threonine-protein kinase pim-1 (Homo sapiens) (UniProt P11309); test: Binding affinity to PIM1 at 1 uM by high throughput binding assay relative to control
[8] = target: Serine/threonine-protein kinase PAK 1 (Homo sapiens) (UniProt Q13153); test: Binding affinity to PAK1 at 1 uM by high throughput binding assay relative to control
[9] = target: Serine/threonine-protein kinase PLK3 (Homo sapiens) (UniProt Q9H4B4); test: Binding affinity to PLK3 at 1 uM by high throughput binding assay relative to control
MCF7 [10] = test: Induction of apoptosis in human MCF7 cells assessed as increase in cleaved caspase-3 expression at 10 uM after 24 hrs by immunofluorescence staining method; assay type: functional, cell-based
[11] = target: RAC-alpha serine/threonine-protein kinase (Homo sapiens) (UniProt P31749); test: Binding affinity to AKT1 at 1 uM by high throughput binding assay relative to control
MCF7 [12] = details: Homo sapiens
Description: (§1) Cytotoxicity against human MCF7 cells after 48 hrs by MTT assay

[13] = target: Epidermal growth factor receptor (Homo sapiens) (UniProt P00533); test: Binding affinity to EGFR at 1 uM by high throughput binding assay relative to control
[14] = target: RAC-beta serine/threonine-protein kinase (Homo sapiens) (UniProt P31751); test: Binding affinity to AKT2 at 1 uM by high throughput binding assay relative to control
[15] = target: T2, High affinity nerve growth factor receptor (Homo sapiens, UniProt P04629); details: MCF7, 0.1 to 10 uM
Target sequence in this assay (P04629 33-796 limits assumed): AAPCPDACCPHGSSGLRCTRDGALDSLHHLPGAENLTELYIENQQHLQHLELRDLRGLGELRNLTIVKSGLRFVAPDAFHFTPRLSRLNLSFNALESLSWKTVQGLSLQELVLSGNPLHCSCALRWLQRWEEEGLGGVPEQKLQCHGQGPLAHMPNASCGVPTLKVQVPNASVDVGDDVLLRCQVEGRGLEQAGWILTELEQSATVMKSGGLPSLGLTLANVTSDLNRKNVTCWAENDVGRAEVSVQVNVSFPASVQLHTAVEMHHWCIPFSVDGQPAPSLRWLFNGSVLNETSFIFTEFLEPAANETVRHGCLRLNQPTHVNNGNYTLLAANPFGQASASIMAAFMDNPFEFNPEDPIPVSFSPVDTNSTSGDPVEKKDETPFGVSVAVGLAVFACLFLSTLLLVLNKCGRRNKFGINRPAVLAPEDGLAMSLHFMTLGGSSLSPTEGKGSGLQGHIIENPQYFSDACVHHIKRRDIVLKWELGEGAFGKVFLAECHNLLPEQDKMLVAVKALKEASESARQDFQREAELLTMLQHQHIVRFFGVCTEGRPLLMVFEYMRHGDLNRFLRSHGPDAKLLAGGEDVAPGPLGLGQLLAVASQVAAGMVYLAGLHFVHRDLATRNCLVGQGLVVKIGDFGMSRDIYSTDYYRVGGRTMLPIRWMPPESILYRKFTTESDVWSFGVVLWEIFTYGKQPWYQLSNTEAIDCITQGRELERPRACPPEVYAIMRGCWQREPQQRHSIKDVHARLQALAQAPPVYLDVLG
Description: Inhibition of TRKA-induced AKT phosphorylation in human MCF7 cells at 0.1 to 10 uM by Western blot analysis

MCF7 [16] = test: cells; details: Homo sapiens, MCF7, 48 h
Description: as §1

MCF7 [17] = test: Induction of apoptosis in human MCF7 cells assessed as nuclear condensation at 10 uM after 24 hrs by DAPI staining; assay type: functional, cell-based
MCF7 [18] = test: Induction of apoptosis in human MCF7 cells assessed as increase in Bax expression at 10 uM after 24 hrs by immunofluorescence staining method; assay type: functional, cell-based
[19] = target: Hepatocyte growth factor receptor (Homo sapiens) (UniProt P08581); test: Binding affinity to MET at 1 uM by high throughput binding assay relative to control
[20] = target: T1, Mast/stem cell growth factor receptor Kit; test: Binding affinity to KIT at 1 uM by high throughput binding assay relative to control
[21] = target: Serine/threonine-protein kinase B-raf (Homo sapiens) (UniProt P15056); test: Binding affinity to BRAF at 1 uM by high throughput binding assay relative to control
[22] = target: Platelet-derived growth factor receptor alpha (Homo sapiens) (UniProt P16234); test: Binding affinity to PDGFRalpha at 1 uM by high throughput binding assay relative to control
[23] = target: Rho-associated protein kinase 2 (Homo sapiens) (UniProt O75116); test: Binding affinity to ROCK2 at 1 uM by high throughput binding assay relative to control
[24] = target: T2, High affinity nerve growth factor receptor; details: MCF7, 0.1 to 10 uM; remark: listed apart in the source
Target sequence in this assay (P04629 33-796 limits assumed): as above
Description: Inhibition of TRKA phosphorylation in human MCF7 cells at 0.1 to 10 uM by Western blot analysis

[25] = target: Phosphatidylinositol 4,5-bisphosphate 3-kinase catalytic subunit alpha isoform (Homo sapiens, UniProt P42336); test: Binding affinity to PI3KCA at 1 uM by high throughput binding assay relative to control
[26] = target: T2, High affinity nerve growth factor receptor; test: Inhibition of TRKA assessed as [gamma33P]ATP incorporation into substrate
[27] = target: Aurora kinase B (Homo sapiens) (UniProt Q96GD4); test: Binding affinity to AURKB at 1 uM by high throughput binding assay relative to control
MCF7 [28] = test: Induction of apoptosis in human MCF7 cells assessed as increase in cytochrome C expression at 10 uM after 24 hrs by immunofluorescence staining method; assay type: functional, cell-based
SK-BR-3 = test: Cytotoxicity against human SKBR3 cells after 48 hrs by MTT assay; assay type: functional, cell-based
[29] = target: Tyrosine-protein kinase ABL1 (Homo sapiens) (UniProt P00519); test: Binding affinity to ABL1 at 1 uM by high throughput binding assay relative to control
[30] = target: Mitogen-activated protein kinase 14 (Homo sapiens) (UniProt Q16539); test: Binding affinity to P38alpha at 1 uM by high throughput binding assay relative to control
MCF7 [31] = test: Induction of apoptosis in human MCF7 cells assessed as DNA strand breaks at 10 uM after 24 hrs by TUNEL assay; assay type: functional, cell-based
MCF7 [32] = test: Induction of apoptosis in human MCF7 cells assessed as decrease in Bcl-2 expression at 10 uM after 24 hrs by immunofluorescence staining method; assay type: functional, cell-based
[33] = target: Hypoxia-inducible factor 1-alpha (Homo sapiens) (UniProt Q16665); test: Inhibition of HIF1alpha-mediated VEGF production in human MCF7 cells under hypoxic condition at 0.1 to 10 uM after 6 hrs; assay type: cell-based
[34] = target: Focal adhesion kinase 1 (Homo sapiens) (UniProt Q05397); test: Binding affinity to FAK at 1 uM by high throughput binding assay relative to control
[35] = target: BDNF/NT-3 growth factors receptor (Homo sapiens) (UniProt Q16620); test: Binding affinity to TRKB at 1 uM by high throughput binding assay relative to control
[36] = target: 3-phosphoinositide-dependent protein kinase 1 (Homo sapiens) (UniProt O15530); test: Binding affinity to PDPK1 at 1 uM by high throughput binding assay relative to control
[37] = target: Cyclin-dependent kinase 19 (Homo sapiens) (UniProt Q9BWU1); test: Binding affinity to CDK11 at 1 uM by high throughput binding assay relative to control
[38] = target: Mitogen-activated protein kinase 3 (Homo sapiens) (UniProt P27361); test: Binding affinity to ERK1 at 1 uM by high throughput binding assay relative to control
[39] = target: cAMP-dependent protein kinase catalytic subunit alpha (Homo sapiens) (UniProt P17612); test: Binding affinity to PKACalpha at 1 uM by high throughput binding assay relative to control
HUVEC [40] = test: Antiangiogenic activity in HUVEC assessed as inhibition of wound-induced cell migration after 16 hrs; assay type: functional, cell-based; details: Homo sapiens
MCF7 [41] = test: Induction of apoptosis in human MCF7 cells assessed as nuclear fragmentation at 10 uM after 24 hrs by DAPI staining; assay type: functional, cell-based
HUVEC [42] = test: Antiangiogenic activity against HUVEC assessed as inhibition of VEGF-induced tube formation after 10 hrs by phase-contrast microscopic analysis; assay type: functional, cell-based; details: Homo sapiens
[43] = target: Glycogen synthase kinase-3 beta (Homo sapiens) (UniProt P49841); test: Binding affinity to GSK3beta at 1 uM by high throughput binding assay relative to control
MCF7 [44] = test: Cytotoxicity against human MCF7 cells assessed as growth inhibition at 0.1 to 50 uM after 48 hrs by MTT assay; assay type: functional
MCF7 [45] = test: Inhibition of hypoxia-induced HIF1alpha expression in human MCF7 cells after 6 hrs; assay type: functional, cell-based
[46] = target: Fibroblast growth factor receptor 2 (Homo sapiens) (UniProt P21802); test: Binding affinity to FGFR2 at 1 uM by high throughput binding assay relative to control

T1 sequence (P10721 whole entry): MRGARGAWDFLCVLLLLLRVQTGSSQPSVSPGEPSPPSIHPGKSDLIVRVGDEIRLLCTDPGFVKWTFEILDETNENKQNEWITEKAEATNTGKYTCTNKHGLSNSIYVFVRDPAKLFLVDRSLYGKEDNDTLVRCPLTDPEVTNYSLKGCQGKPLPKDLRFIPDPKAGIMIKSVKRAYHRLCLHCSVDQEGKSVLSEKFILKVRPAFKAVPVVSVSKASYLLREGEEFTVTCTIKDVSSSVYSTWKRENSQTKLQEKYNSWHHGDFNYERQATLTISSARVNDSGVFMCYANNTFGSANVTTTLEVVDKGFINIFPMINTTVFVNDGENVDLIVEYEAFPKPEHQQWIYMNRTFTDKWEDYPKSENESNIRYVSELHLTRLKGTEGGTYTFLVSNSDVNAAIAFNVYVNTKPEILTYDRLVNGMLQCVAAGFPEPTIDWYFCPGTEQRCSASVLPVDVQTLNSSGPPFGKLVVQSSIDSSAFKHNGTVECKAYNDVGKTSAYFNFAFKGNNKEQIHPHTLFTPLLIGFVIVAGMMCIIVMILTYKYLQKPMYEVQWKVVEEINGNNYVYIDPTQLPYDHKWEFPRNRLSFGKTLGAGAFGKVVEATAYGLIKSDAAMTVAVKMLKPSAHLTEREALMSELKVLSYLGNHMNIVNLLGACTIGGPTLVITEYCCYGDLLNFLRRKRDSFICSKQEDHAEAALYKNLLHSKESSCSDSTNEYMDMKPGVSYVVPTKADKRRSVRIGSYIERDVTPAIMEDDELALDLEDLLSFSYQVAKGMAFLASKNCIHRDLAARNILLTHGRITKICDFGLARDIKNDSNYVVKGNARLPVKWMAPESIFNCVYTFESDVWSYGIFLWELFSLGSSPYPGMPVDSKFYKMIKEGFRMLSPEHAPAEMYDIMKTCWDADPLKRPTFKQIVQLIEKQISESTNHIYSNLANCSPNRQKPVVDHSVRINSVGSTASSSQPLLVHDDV
Mitogen-activated protein kinase 3 (Homo sapiens), sequence (P27361 whole entry): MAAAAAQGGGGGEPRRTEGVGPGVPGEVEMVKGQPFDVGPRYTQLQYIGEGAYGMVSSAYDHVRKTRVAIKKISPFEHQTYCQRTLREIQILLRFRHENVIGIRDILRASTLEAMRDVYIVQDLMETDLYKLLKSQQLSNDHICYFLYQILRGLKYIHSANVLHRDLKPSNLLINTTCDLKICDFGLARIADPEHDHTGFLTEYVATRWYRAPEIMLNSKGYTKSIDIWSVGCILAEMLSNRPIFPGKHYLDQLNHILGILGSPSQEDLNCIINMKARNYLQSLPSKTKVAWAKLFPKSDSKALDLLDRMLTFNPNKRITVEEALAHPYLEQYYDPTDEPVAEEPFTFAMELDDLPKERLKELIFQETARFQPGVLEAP
RAC-alpha serine/threonine-protein kinase (Homo sapiens), sequence (P31749 whole entry): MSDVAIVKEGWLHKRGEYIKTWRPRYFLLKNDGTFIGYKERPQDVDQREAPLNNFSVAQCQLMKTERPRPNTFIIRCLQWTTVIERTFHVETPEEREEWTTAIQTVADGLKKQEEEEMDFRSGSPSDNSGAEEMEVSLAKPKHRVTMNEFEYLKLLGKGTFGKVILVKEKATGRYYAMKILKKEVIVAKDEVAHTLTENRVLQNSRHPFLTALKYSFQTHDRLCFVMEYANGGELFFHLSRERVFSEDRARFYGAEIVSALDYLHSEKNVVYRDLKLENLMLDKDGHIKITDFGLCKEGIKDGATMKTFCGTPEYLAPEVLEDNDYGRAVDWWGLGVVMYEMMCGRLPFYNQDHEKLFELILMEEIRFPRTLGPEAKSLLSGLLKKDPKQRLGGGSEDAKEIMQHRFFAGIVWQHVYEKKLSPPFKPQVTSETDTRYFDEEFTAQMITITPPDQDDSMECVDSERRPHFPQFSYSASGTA
Epidermal growth factor receptor (Homo sapiens), sequence (P00533 whole entry): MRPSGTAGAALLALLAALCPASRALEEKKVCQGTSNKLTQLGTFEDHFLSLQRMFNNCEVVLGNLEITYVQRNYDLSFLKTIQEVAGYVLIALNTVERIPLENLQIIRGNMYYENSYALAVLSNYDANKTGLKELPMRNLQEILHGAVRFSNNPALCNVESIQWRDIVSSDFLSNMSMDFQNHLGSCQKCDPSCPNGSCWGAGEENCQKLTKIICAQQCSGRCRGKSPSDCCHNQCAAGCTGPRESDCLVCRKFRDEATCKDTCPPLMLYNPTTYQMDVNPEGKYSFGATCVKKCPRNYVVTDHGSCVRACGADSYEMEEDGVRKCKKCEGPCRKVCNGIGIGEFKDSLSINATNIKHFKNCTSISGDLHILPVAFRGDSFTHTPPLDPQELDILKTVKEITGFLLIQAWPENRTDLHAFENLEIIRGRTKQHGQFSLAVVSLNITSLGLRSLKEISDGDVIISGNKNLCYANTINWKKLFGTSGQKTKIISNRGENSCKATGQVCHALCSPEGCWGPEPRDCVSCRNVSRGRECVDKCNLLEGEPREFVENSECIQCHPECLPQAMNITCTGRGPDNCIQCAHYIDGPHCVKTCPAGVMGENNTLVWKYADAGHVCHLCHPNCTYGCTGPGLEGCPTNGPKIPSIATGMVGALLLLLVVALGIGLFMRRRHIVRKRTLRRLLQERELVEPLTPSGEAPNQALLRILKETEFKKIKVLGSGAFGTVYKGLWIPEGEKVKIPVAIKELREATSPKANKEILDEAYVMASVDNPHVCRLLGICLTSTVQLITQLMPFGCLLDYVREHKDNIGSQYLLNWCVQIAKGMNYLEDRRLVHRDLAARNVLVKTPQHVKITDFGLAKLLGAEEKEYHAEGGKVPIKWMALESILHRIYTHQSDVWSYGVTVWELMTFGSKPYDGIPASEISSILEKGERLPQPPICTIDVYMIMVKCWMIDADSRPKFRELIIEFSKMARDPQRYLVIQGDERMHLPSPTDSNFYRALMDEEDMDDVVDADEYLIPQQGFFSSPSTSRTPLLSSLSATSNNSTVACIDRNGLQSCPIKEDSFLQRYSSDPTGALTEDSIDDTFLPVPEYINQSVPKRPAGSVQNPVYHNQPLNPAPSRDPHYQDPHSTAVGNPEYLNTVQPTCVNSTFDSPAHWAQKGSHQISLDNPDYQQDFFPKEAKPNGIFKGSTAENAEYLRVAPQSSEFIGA
Dual specificity mitogen-activated protein kinase kinase 2 (Homo sapiens), sequence (P36507 whole entry): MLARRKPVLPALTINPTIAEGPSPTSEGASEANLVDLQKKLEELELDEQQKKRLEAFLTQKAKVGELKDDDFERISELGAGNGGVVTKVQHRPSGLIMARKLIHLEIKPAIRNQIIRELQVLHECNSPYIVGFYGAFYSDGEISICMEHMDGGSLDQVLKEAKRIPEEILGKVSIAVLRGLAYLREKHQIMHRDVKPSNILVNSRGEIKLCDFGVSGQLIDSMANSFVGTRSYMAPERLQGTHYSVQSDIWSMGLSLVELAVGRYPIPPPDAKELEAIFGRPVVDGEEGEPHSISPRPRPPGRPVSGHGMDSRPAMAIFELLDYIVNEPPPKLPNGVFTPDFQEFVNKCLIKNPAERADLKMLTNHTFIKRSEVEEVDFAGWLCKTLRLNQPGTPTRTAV
Aurora kinase A (Homo sapiens), sequence (O14965 whole entry): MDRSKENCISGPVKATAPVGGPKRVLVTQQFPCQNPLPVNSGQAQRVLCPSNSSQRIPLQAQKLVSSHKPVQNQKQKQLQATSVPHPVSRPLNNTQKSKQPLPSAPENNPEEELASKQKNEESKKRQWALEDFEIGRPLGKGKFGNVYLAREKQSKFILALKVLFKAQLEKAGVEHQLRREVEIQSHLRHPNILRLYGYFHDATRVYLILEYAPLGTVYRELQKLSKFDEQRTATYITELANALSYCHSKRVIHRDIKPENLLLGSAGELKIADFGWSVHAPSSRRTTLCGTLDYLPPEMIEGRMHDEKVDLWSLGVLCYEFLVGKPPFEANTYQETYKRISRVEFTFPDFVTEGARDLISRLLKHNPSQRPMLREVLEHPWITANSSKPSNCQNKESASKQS
Mitogen-activated protein kinase 14 (Homo sapiens), sequence (Q16539 whole entry): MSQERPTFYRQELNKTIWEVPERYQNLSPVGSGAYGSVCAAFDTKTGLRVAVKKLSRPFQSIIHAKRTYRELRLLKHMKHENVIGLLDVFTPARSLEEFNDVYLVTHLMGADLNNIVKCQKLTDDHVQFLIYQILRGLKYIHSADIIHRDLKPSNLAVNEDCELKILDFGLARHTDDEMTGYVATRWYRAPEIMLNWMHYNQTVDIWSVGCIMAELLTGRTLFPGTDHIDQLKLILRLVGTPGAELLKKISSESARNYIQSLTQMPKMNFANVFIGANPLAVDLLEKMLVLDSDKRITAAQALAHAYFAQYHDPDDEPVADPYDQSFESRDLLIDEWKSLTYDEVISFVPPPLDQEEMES

- Activity [1]: 100%
- Activity [2]: 34%
- Activity [3]: 100%
- IC50 [4]: 145 nM
- Activity [5]: 100%
- Activity [6]: 100%
- Activity [7]: 97%
- Activity [8]: 79%
- Activity [9]: 75%
- Activity [11]: 94%
- Activity [13]: 100%
- Activity [14]: 100%
- inhibition [15]: Active
- IC50 (MCF7 [16]): 4.2 µM
- Activity [19]: 96%
- Activity [20]: 3%
- Activity [21]: 100%
- Activity [22]: 69%
- Activity [23]: 50%
- inhibition [24]: Active
- Activity [25]: 64%
- IC50 [26]: 1.67 nM
- Activity [27]: 85%
- Activity [29]: 81%
- Activity [30]: 100%
- inhibition [33]: Active
- Activity [34]: 88%
- Activity [35]: 1.2%
- Activity [36]: 90%
- Activity [37]: 26%
- Activity [38]: 100%
- Activity [39]: 88%
- Activity [43]: 81%
- Activity [46]: 61%
SMILES: Nc1cc(NS(=O)(=O)c2cccc(C(F)(F)F)c2)cc(-c2cnc3[nH]cc(-c4ccncc4)c3c2)c1
- Activity (MCF7 [10]): Active
- Activity (MCF7 [12]): Dose-dependent effect
- Activity (MCF7 [17]): Active
- Activity (MCF7 [18]): Active
- Activity (MCF7 [28]): Active
- Activity (SK-BR-3): Dose-dependent effect
- Activity (MCF7 [31]): Active
- Activity (MCF7 [32]): Active
- inhibition (HUVEC [40]): Dose-dependent effect
- Activity (MCF7 [41]): Active
- inhibition (HUVEC [42]): Dose-dependent effect
- growth inhibition (GI) (MCF7 [44]): 40%
- inhibition (MCF7 [45]): Dose-dependent effect

Source: ChEMBL document CHEMBL2150859, “Design, synthesis, and evaluation of 3,5-disubstituted 7-azaindoles as Trk inhibitors with anticancer and antiangiogenic activities” (J Med Chem, 2012)
